Data: patent US12685724B2, “Antidepressant therapy” (ICHILOV TECH LTD., priority 2020, dated 2026)

Experiments:
[1] = test system: patients suffering from post-stroke depression (PSD); assay: Clinical study of maraviroc in patients suffering from post-stroke depression (PSD); assay type: in vivo, human
Procedure: A clinical study to evaluate the safety, tolerability and efficacy of maraviroc in patients suffering from post-stroke depression (PSD) was performed as follows:
Ten men and women aged 50 to 86 years who experience stroke, i.e., cerebral infarction or transient ischemic attack (TIA) prior to the initiation of the study were enrolled to the study. These subjects also experienced a major depressive episode that develops within 12 months from the stroke/TIA. Clinical diagnosis of stroke was performed according to the World Health Organization Monica Project.
Exclusion criteria comprise e.g. 1) significant acute neurologic illness including: impaired consciousness, Parkinson's disease, Huntington's chorea, progressive supranuclear paralysis, brain tumor, subdural hematoma, multiple sclerosis, hydrocephalus, Binswanger's disease, or severe aphasia, 2) patients diagnosed with dementia or significant cognitive impairment as defined by a MoCA score <20 at screening, or other neurological conditions (multiple sclerosis, Parkinson's disease, epilepsy, Huntington's chorea, brain tumor, subdural hematoma, multiple sclerosis, hydrocephalus, or Binswanger's disease), 3) positive serology for Hepatitis B or C; or for HIV.
Each subject received 300 mg maraviroc daily or 150 mg daily for 10 weeks. Post-treatment follow-up was conducted for 8 weeks after the last dose of Maraviroc. During the 10 weeks of maraviroc treatment the subjects were evaluated every two weeks, and during the 8 weeks of follow-up the subjects were evaluated at the 4th and 8th week after the last dose of maraviroc.
The subjects were evaluated for the efficacy of maraviroc by assessing the improvement in depressive symptoms determined by a change from baseline (i.e., Day 1 pre-dose) in the Montgomery-Asberg Depression Rating Scale (MADRS) total score. Other assessments included, for example, assessment of depressive symptoms by the 16-item Quick Inventory of Depressive Symptomatology-Self Report (QIDS-SR16); assessment of remission, defined as a MADRS total score ≤10; assessment of response, defined as a ≥50% reduction from baseline in MADRS total score; evaluation of symptoms of anxiety as assessed by the Generalized Anxiety Disorder 7-item Scale (GAD-7)—each item is rated on a 4-point scale (0 to 3), with the total score range from 0-21 (higher scores indicating more anxiety); and evaluation of cognitive status, as assessed by cognitive score based on repeatable computerized battery of cognitive tests (Neurotrax) and Montreal Cognitive Assessment (MoCA).
Additional assessments include e.g. the clinical global impression-improvement (CGI-I), a 7 point scale that requires the clinician to assess how much the patient's illness has improved or worsened relative to a baseline state at the beginning of the intervention; the clinical global impression-severity (CGI-S), which evaluates the severity of psychopathology from 1 to 7, and provides an overall clinician-determined summary measure that takes into account all available information, including knowledge of the subject's history, psychosocial circumstances, symptoms, behavior, and the impact of the symptoms on the subject's ability to function; Patient Global Impression scales, commonly used measures of symptom severity, treatment response and the efficacy of treatments; the patient global impression-severity (PGI-S), that provides an overall patient-rated summary measure that assesses the severity of the subject's MDD; the patient global impression of change (PGI-C) which provides an overall patient-rated summary that assesses subject perception of change in their MDD since starting study treatment; the EuroQol Group; 5 dimension (EQ-5D) which is a standardized 2-part instrument for use as a measure of health outcome, primarily designed for self-completion by respondents. […]

[2] = test system: simian immunodeficiency virus (SIV)-mediated CNS disease; details: rhesus macaques; cited from earlier work
[3] = test system: hemiparkinsonian monkeys; details: cited from earlier work
[4] = test system: subjects with CCR5-tropic HIV-1; details: cited from earlier work

## Cc1nnc(C(C)C)n1[C@@H]1C[C@H]2CC[C@@H](C1)N2CC[C@H](NC(=O)C1CCC(F)(F)CC1)c1ccccc1 [maraviroc]
[1]; PSD patients, maraviroc 300 mg daily, GAD-7
  effect on anxiety symptoms: effective in reducing anxiety symptoms
[1]; PSD patients, maraviroc 300 mg once daily oral
  side effects reported by the participants during the study: 1 transient impotence, 1 severe constipation (drug-unrelated)
[1]; PSD patients, maraviroc 300 mg once daily oral, 10 weeks, initial MADRS about 35-40
  MADRS score following 10 weeks of treatment: 5-10
[1]; PSD patients, maraviroc 300 mg once daily oral, initial MADRS >34
  MADRS score, best outcome (normal/symptom-absent, remission): < 7
[1]; Patient 1, 10 weeks maraviroc 300 mg daily, add-on therapy, GAD-7 at admission 17 (severe)
  GAD-7 at data collection: 10
[1]; Patient 2, 10 weeks maraviroc 300 mg daily, add-on therapy, GAD-7 at admission 6 (mild)
  GAD-7 at data collection: 6
[1]; Patient 3, week 7 of maraviroc 300 mg daily, add-on therapy, GAD-7 at admission 8 (mild)
  GAD-7 at data collection: 7
[1]; Patient 4, maraviroc monotherapy 300 mg daily, CGI=5 (markedly ill) at admission
  CGI severity (CGI-S) after four weeks of treatment: 3
[1]; Patient 4, week 4 of maraviroc 300 mg daily, monotherapy, GAD-7 at admission 14 (moderate)
  GAD-7 at data collection: 8
[1]; all 4 PSD patients, maraviroc 300 mg once daily oral, 4-10 weeks
  depressive symptoms on quick inventory of depressive symptoms-self report (QIDS-SR): All patients improved their depressive symptoms
[1]; all 4 PSD patients, maraviroc 300 mg once daily oral, 4-10 weeks, initial MADRS about 35-40 (>34, severe)
  MADRS score after treatment: < 20
[1]; all 4 PSD patients, maraviroc 300 mg once daily oral, add-on (patients 1-3) or monotherapy (patient 4)
  time from first dose to beginning of treatment effects (time to response), depressive scores evaluated by senior psychiatrist: 1-2 weeks
[1]; all 4 PSD patients, self-report depressive scores, maraviroc 300 mg once daily oral
  time from first dose to beginning of self-reported treatment effect: 1-2 weeks
[1]; human PSD patients
  safety and tolerability: well-tolerated without safety concerns
[2]
  SIV-mediated CNS disease (SIV RNA in CSF and brain, CD68 immunostaining, axonal APP immunostaining): inhibited simian immunodeficiency virus (SIV)-mediated CNS disease
[3]
  effect on the nigrostriatum: protects the nigrostriatum
  infiltration of T cells into the central nervous system: attenuates the infiltration of T cells into the central nervous system
[4]; pooled data from two trials in subjects with CCR5-tropic HIV-1
  potential treatment-emergent adverse events: Depressive disorders and anxiety symptoms
[4]; treatment-experienced subjects
  most common adverse events, at higher frequency compared with placebo: upper respiratory tract infections, cough, pyrexia, rash, and dizziness
